# In ChEMBL document CHEMBL3871268, “Chalcogen containing heterocyclic scaffolds: New hybrids with antitumoral activity” (Eur J Med Chem, 2016):
# Residues, ends and D or L forms follow the SMILES beside them. *: point of attachment. Cbz = O=C(OCc1ccccc1)*; CH2F = FC*
# Columns and labels:
# MCF7 = assay: Selectivity index, ratio of GI50 for human 184B5 cells to GI50 for human MCF7 cells; format: functional
# [1] = Cytotoxicity against human 184B5 cells assessed as reduction in cell viability measured after 72 hrs by MTT assay; format: toxicity, cell-based; settings: for GI50 at 72 h: 184B5 cells; for LC50 / TGI: 184b5, 72 h
# [2] = Cytotoxicity against human PC3 cells assessed as reduction in cell viability measured after 72 hrs by MTT assay; format: functional; settings: PC-3, 72 h
# [3] = Cytotoxicity against human MCF7 cells assessed as reduction in cell viability measured after 72 hrs by MTT assay; format: functional; settings: MCF7, 72 h
# [4] = Cell cycle analysis in human MCF7 cells assessed as accumulation at G0/G1 phase at 6 uM measured after 24 hrs by propidium iodide staining-based flow cytometry (reference value: 73.6%); format: functional
# [5] = Cell cycle analysis in human MCF7 cells assessed as accumulation at SubG1 phase at 6 uM measured after 24 hrs by propidium iodide staining-based flow cytometry (reference value: 2.6%); format: functional
# [6] = Cell cycle analysis in human MCF7 cells assessed as accumulation at G2/M phase at 6 uM measured after 24 hrs by propidium iodide staining-based flow cytometry (reference value: 8.9%); format: functional
# [7] = Cell cycle analysis in human MCF7 cells assessed as accumulation at S phase at 6 uM measured after 24 hrs by propidium iodide staining-based flow cytometry (reference value: 15.3%); format: functional
# [8] = Cell cycle arrest in human MCF7 cells assessed as M1 quadrant cells at 50 uM pretreated with pan-caspase inhibitor Z-VAD-FMK for 1 hr followed by compound addition measured after 48 hrs by propidium iodide staining-based flow cytometry assay (reference value: 98.1%); format: functional; set-up: scale not given: the % may be the effect or the level left
# [9] = Cell cycle arrest in human MCF7 cells assessed as sub-diploid cells at 50 uM pretreated with pan-caspase inhibitor Z-VAD-FMK for 1 hr followed by compound addition measured after 48 hrs by propidium iodide staining-based flow cytometry assay (reference value: 1.9%); format: functional; set-up: scale not given: the % may be the effect or the level left
structure (smiles),measurement,setting,value
N#CSCc1ccc(-n2cccc2)cc1,RatioGI50,MCF7,1.6
same,GI50 at 72 h,[1],12.9 µM
same,LC50,[1],> 100 µM
same,TGI,[1],23.5 µM
same,GI50,[2],14.1 µM
same,LC50 (concentration lethal to 50% of cells),[2],88.1 µM
same,TGI,[2],60.3 µM
same,GI50,[3],8.2 µM
same,LC50,[3],> 100 µM
same,TGI,[3],36.9 µM
SCc1cc2c(cc1Br)OCO2,RatioGI50,MCF7,>37
same,GI50 at 72 h,[1],> 100 µM
same,LC50,[1],> 100 µM
same,TGI,[1],> 100 µM
same,GI50,[2],87.5 µM
same,LC50 (concentration lethal to 50% of cells),[2],> 100 µM
same,TGI,[2],> 100 µM
same,GI50,[3],3.2 µM
same,LC50,[3],> 100 µM
same,TGI,[3],> 100 µM
C[Se]c1ccc2ccccc2n1,GI50,[2],83.6 µM
same,LC50 (concentration lethal to 50% of cells),[2],> 100 µM
same,TGI,[2],> 100 µM
same,GI50,[3],21 µM
same,LC50,[3],> 100 µM
same,TGI,[3],> 100 µM
N#C[Se]CN1C(=O)c2ccccc2C1=O,GI50,[2],11.2 µM
same,LC50 (concentration lethal to 50% of cells),[2],56.7 µM
same,TGI,[2],32.1 µM
same,GI50,[3],15.4 µM
same,LC50,[3],93.4 µM
same,TGI,[3],56.1 µM
CSc1ccc2ccccc2n1,GI50 at 72 h,[1],> 100 µM
same,LC50,[1],> 100 µM
same,TGI,[1],> 100 µM
same,GI50,[2],87 µM
same,LC50 (concentration lethal to 50% of cells),[2],> 100 µM
same,TGI,[2],> 100 µM
same,GI50,[3],> 100 µM
same,LC50,[3],> 100 µM
same,TGI,[3],> 100 µM
N#CSc1nccc(Cl)n1,GI50,[2],> 100 µM
same,LC50 (concentration lethal to 50% of cells),[2],> 100 µM
same,TGI,[2],> 100 µM
same,GI50,[3],35 µM
same,LC50,[3],> 100 µM
same,TGI,[3],> 100 µM
[SeH]Cc1cc2c(cc1Br)OCO2,GI50,[2],34.6 µM
same,LC50 (concentration lethal to 50% of cells),[2],> 50 µM
same,TGI,[2],> 50 µM
same,GI50,[3],22.2 µM
same,LC50,[3],> 50 µM
same,TGI,[3],> 50 µM
CSc1ccnc(SC)n1,GI50,[2],77.5 µM
same,LC50 (concentration lethal to 50% of cells),[2],> 100 µM
same,TGI,[2],> 100 µM
same,GI50,[3],> 100 µM
same,LC50,[3],> 100 µM
same,TGI,[3],> 100 µM
N#CSCc1cc2c(cc1Br)OCO2,RatioGI50,MCF7,>14.9
same,GI50 at 72 h,[1],> 100 µM
same,LC50,[1],> 100 µM
same,TGI,[1],> 100 µM
same,GI50,[2],23.8 µM
same,LC50 (concentration lethal to 50% of cells),[2],74.2 µM
same,TGI,[2],41.8 µM
same,GI50,[3],6.7 µM
same,LC50,[3],> 100 µM
same,TGI,[3],> 100 µM
C[Se]c1nc2ccccc2s1,RatioGI50,MCF7,>13.9
same,GI50 at 72 h,[1],> 100 µM
same,LC50,[1],> 100 µM
same,TGI,[1],> 100 µM
same,GI50,[2],> 100 µM
same,LC50 (concentration lethal to 50% of cells),[2],> 100 µM
same,TGI,[2],> 100 µM
same,GI50,[3],7.2 µM
same,LC50,[3],> 100 µM
same,TGI,[3],> 100 µM
Sc1ccc2ccccc2n1,GI50,[2],85.3 µM
same,LC50 (concentration lethal to 50% of cells),[2],> 100 µM
same,TGI,[2],> 100 µM
same,GI50,[3],> 100 µM
same,LC50,[3],> 100 µM
same,TGI,[3],> 100 µM
CC[C@@]1(O)C(=O)OCc2c1cc1n(c2=O)Cc2cc3ccccc3nc2-1,Activity,[4],54.6%
same,Activity,[5],4.4%
same,Activity,[6],25.8%
same,Activity,[7],16.3%
N#C[Se]Cc1cc2c(cc1Br)OCO2,GI50,[2],24 µM
same,LC50 (concentration lethal to 50% of cells),[2],> 100 µM
same,TGI,[2],45.7 µM
same,GI50,[3],66.9 µM
same,LC50,[3],> 100 µM
same,TGI,[3],> 100 µM
[SeH]Cc1c2ccccc2nc2ccccc12,GI50,[2],83.2 µM
same,LC50 (concentration lethal to 50% of cells),[2],> 100 µM
same,TGI,[2],> 100 µM
same,GI50,[3],39.1 µM
same,LC50,[3],> 100 µM
same,TGI,[3],> 100 µM
CC(C)[C@H](NC(=O)OCc1ccccc1)C(=O)N[C@@H](C)C(=O)N[C@@H](CC(=O)O)C(=O)CF (Cbz-Val-Ala-Asp-CH2F),Activity,[8],96.1%
same,Activity,[9],3.9%
Cc1noc(C)c1C[Se]C#N,RatioGI50,MCF7,<1
same,GI50 at 72 h,[1],2 µM
same,LC50,[1],22.8 µM
same,TGI,[1],4 µM
same,GI50,[2],5.6 µM
same,LC50 (concentration lethal to 50% of cells),[2],17.6 µM
same,TGI,[2],10.3 µM
same,GI50,[3],2.2 µM
same,LC50,[3],24.5 µM
same,TGI,[3],8.3 µM
Sc1ccnc(S)n1,GI50,[2],82.5 µM
same,LC50 (concentration lethal to 50% of cells),[2],> 100 µM
same,TGI,[2],> 100 µM
same,GI50,[3],> 100 µM
same,LC50,[3],> 100 µM
same,TGI,[3],> 100 µM
[SeH]c1ccnc([SeH])n1,RatioGI50,MCF7,1.6
same,GI50 at 72 h,[1],10.7 µM
same,LC50,[1],63.7 µM
same,TGI,[1],35.3 µM
same,GI50,[2],9.8 µM
same,LC50 (concentration lethal to 50% of cells),[2],51.3 µM
same,TGI,[2],28.3 µM
same,GI50,[3],6.7 µM
same,LC50,[3],75.4 µM
same,TGI,[3],40 µM
N#CSCc1c2ccccc2nc2ccccc12,RatioGI50,MCF7,16
same,GI50 at 72 h,[1],14.4 µM
same,LC50,[1],38.5 µM
same,TGI,[1],26.4 µM
same,GI50,[2],1.5 µM
same,LC50 (concentration lethal to 50% of cells),[2],28.3 µM
same,TGI,[2],2.4 µM
same,GI50,[3],0.9 µM
same,LC50,[3],34.4 µM
same,TGI,[3],17.5 µM
[SeH]c1nc2ccccc2s1,GI50,[2],> 50 µM
same,LC50 (concentration lethal to 50% of cells),[2],> 50 µM
same,TGI,[2],> 50 µM
same,GI50,[3],> 50 µM
same,LC50,[3],> 50 µM
same,TGI,[3],> 50 µM
O=C1c2ccccc2C(=O)N1CS,GI50,[2],74.7 µM
same,LC50 (concentration lethal to 50% of cells),[2],> 100 µM
same,TGI,[2],> 100 µM
same,GI50,[3],> 100 µM
same,LC50,[3],> 100 µM
same,TGI,[3],> 100 µM
N#CSCN1C(=O)c2ccccc2C1=O,GI50,[2],> 100 µM
same,LC50 (concentration lethal to 50% of cells),[2],> 100 µM
same,TGI,[2],> 100 µM
same,GI50,[3],48.1 µM
same,LC50,[3],> 100 µM
same,TGI,[3],> 100 µM
N#C[Se]Cc1c2ccccc2nc2ccccc12,GI50,[2],16.6 µM
same,LC50 (concentration lethal to 50% of cells),[2],40 µM
same,TGI,[2],28.3 µM
same,GI50,[3],40.1 µM
same,LC50,[3],44.5 µM
same,TGI,[3],67.6 µM
C[Se](=O)O,RatioGI50,MCF7,1.4
same,GI50 at 72 h,[1],1.8 µM
same,LC50,[1],> 100 µM
same,TGI,[1],3.8 µM
same,GI50,[2],2.5 µM
same,LC50 (concentration lethal to 50% of cells),[2],37.1 µM
same,TGI,[2],8.4 µM
same,GI50,[3],1.3 µM
same,LC50,[3],> 100 µM
same,TGI,[3],3.4 µM
N#CSc1nc2ccccc2s1,GI50,[2],42 µM
same,LC50 (concentration lethal to 50% of cells),[2],85.5 µM
same,TGI,[2],66.3 µM
same,GI50,[3],40.1 µM
same,LC50,[3],87.7 µM
same,TGI,[3],67.6 µM
Sc1nc2ccccc2s1 [2-MERCAPTOBENZOTHIAZOLE],GI50,[2],84.9 µM
same,TGI,[2],> 100 µM
same,GI50,[3],> 100 µM
same,TGI,[3],> 100 µM
CSc1nc2ccccc2s1,GI50,[2],39.6 µM
O=C1c2ccccc2C(=O)N1C[SeH],RatioGI50,MCF7,2.1
same,GI50 at 72 h,[1],12.7 µM
same,LC50,[1],21.9 µM
same,TGI,[1],17.4 µM
same,GI50,[2],6.4 µM
same,LC50 (concentration lethal to 50% of cells),[2],16.9 µM
same,TGI,[2],9.4 µM
same,GI50,[3],6 µM
same,LC50,[3],12.5 µM
same,TGI,[3],8.2 µM
